Measurements from patent US20210038587A1, “METHODS AND COMPOSITIONS FOR TREATING NON-ERK MAPK PATHWAY INHIBITOR-RESISTANT CANCERS” (BIOMED VALLEY DISCOVERIES, INC., priority 2013, published 2021).

What was measured:
Assay in all cases: Reverse Phase Protein Analysis (RPPA)
Settings in all cases: % change from DMSO (matched cell line)
[1] = tested on: HT29; format: cell-based
Procedure: (§1) Control wells were treated with DMSO at 0.1% (v/v) for 6 hours prior to cell lysate generation. Samples were then analyzed using reverse-phase protein microarray technology (Theranostics Health).
(§2) Cell lines with common alterations in BRAF and RAS were assayed: BRAF^V600E mutant lines A375, Colo205, and HT29; KRAS^G12C-mutant cell line MIAPACa-2; KRAS^G13D-mutant cell line HCT116; and AN3Ca with atypical HRAS^F82L mutation. Changes in protein levels are shown as a percentage change from dimethyl sulfoxide (DMSO)-treated parental control (FIG. 32A and Table 23).

[2] = tested on: AN3Ca; format: cell-based
Procedure: as §1, §2

[3] = tested on: HCT116; format: cell-based, human
Procedure: as §1, §2

[4] = tested on: A375; format: cell-based, human
Procedure: as §1, §2

O=C(Nc1ccc2[nH]nc(-c3ccncc3)c2c1)[C@@H]1CCN(CC(=O)N2CCN(c3ccc(-c4ncccn4)cc3)CC2)C1 [SCH772984]
Avg (4ebp1 T70) [1]: −40.58%
Avg (Akt S473) [1]: −22.14%
Avg (Akt) [1]: −16.93%
Avg (Bad S136) [1]: 9.67%
Avg (Bad S155) [1]: −7.98%
Avg (Bak) [1]: 2.78%
Avg (Bax) [1]: −20.59%
Avg (Bcl 2) [1]: −10.01%
Avg (Bcl2 S70) [1]: −11.45%
Avg (Bcl 2 T56) [1]: −17.9%
Avg (Bim) [1]: 0.69%
Avg (CREB S133) [1]: 9.87%
Avg (Caspase 3 CL D175) [1]: −7.9%
Avg (Caspase 7 Cl D198) [1]: 7.02%
Avg (Chk1) [1]: 14.64%
Avg (Chk1 S345) [1]: 19.05%
Avg (Cyclin D1) [1]: −36.66%
Avg (ERK 1 2) [1]: −37%
Avg (ERK 1 2 T202 Y204) [1]: −74.84%
Avg (MAK1 S360) [1]: 1.25%
Avg (Mcl1) [1]: 14.05%
Avg (Raptor S792) [1]: −6.38%
Avg (Raptor) [1]: −12.18%
Avg (Rictor) [1]: −13.03%
Avg (Stat1) [1]: 5.79%
Avg (Stat3) [1]: −2.15%
Avg (bad S112) [1]: −33.9%
Avg (c Fos) [1]: −9.26%
Avg (c Myc) [1]: 13.55%
Avg (mTOR S2448) [1]: −22.65%
Avg (mTOR S2481) [1]: 13.93%
Avg (mTOR) [1]: 9.31%
Avg (p70 S6 Kinase) [1]: −2.36%
Avg (p90 RSK S380) [1]: −53.88%
Avg(S6 Ribo Prot S235 236) [1]: −44.9%
Avg(S6 Ribo Prot S240 244) [1]: −25.73%
Avg(Tuberin TSC2 Y1571) [1]: 13.25%
Avg(p70 S6 Kinase S371 S394) [1]: −20.52%
Avg(p70 S6 Kinase T389 T412) [1]: −9.55%
Avg (4ebp1 T70) [2]: 61.57%
Avg (Akt S473) [2]: 66.17%
Avg (Akt) [2]: −16.35%
Avg (Bad S136) [2]: 5.26%
Avg (Bad S155) [2]: 12.92%
Avg (Bak) [2]: 9.73%
Avg (Bax) [2]: 0.15%
Avg (Bcl 2) [2]: −5.14%
Avg (Bcl2 S70) [2]: −12.42%
Avg (Bcl 2 T56) [2]: −10.73%
Avg (Bim) [2]: −14.09%
Avg (CREB S133) [2]: 3.64%
Avg (Caspase 3 CL D175) [2]: 1.25%
Avg (Caspase 7 Cl D198) [2]: −24.17%
Avg (Chk1) [2]: 1.35%
Avg (Chk1 S345) [2]: 14.56%
Avg (Cyclin D1) [2]: −11.33%
Avg (ERK 1 2) [2]: −9.27%
Avg (ERK 1 2 T202 Y204) [2]: 19.75%
Avg (MAK1 S360) [2]: −5.02%
Avg (Mcl1) [2]: −7.15%
Avg (Raptor S792) [2]: −4.03%
Avg (Raptor) [2]: −11.09%
Avg (Rictor) [2]: −10.89%
Avg (Stat1) [2]: 5.52%
Avg (Stat3) [2]: −6.01%
Avg (bad S112) [2]: −39.14%
Avg (c Fos) [2]: −9.18%
Avg (c Myc) [2]: 0.88%
Avg (mTOR S2448) [2]: −4.84%
Avg (mTOR S2481) [2]: 11.24%
Avg (mTOR) [2]: −5.33%
Avg (p70 S6 Kinase) [2]: −7.71%
Avg (p90 RSK S380) [2]: −40.26%
Avg(S6 Ribo Prot S235 236) [2]: −61.99%
Avg(S6 Ribo Prot S240 244) [2]: −35.88%
Avg(Tuberin TSC2 Y1571) [2]: 13.44%
Avg(p70 S6 Kinase S371 S394) [2]: 24.56%
Avg(p70 S6 Kinase T389 T412) [2]: −16.63%
Avg (4ebp1 T70) [3]: 5.6%
Avg (Akt S473) [3]: −8.76%
Avg (Akt) [3]: −9.86%
Avg (Bad S136) [3]: −10.55%
Avg (Bad S155) [3]: −22.96%
Avg (Bak) [3]: −4.66%
Avg (Bax) [3]: −13.86%
Avg (Bcl 2) [3]: −10.58%
Avg (Bcl2 S70) [3]: −18.34%
Avg (Bcl 2 T56) [3]: −15.89%
Avg (Bim) [3]: 1.95%
Avg (CREB S133) [3]: −24.18%
Avg (Caspase 3 CL D175) [3]: −4.63%
Avg (Caspase 7 Cl D198) [3]: −16.35%
Avg (Chk1) [3]: −5.58%
Avg (Chk1 S345) [3]: −18.51%
Avg (Cyclin D1) [3]: −73.21%
Avg (ERK 1 2) [3]: −10.22%
Avg (ERK 1 2 T202 Y204) [3]: −75.21%
Avg (MAK1 S360) [3]: −15.32%
Avg (Mcl1) [3]: −6.55%
Avg (Raptor S792) [3]: −18.18%
Avg (Raptor) [3]: −9.66%
Avg (Rictor) [3]: −18.5%
Avg (Stat1) [3]: −10.74%
Avg (Stat3) [3]: −7.67%
Avg (bad S112) [3]: −31.29%
Avg (c Fos) [3]: −15.27%
Avg (c Myc) [3]: −12.86%
Avg (mTOR S2448) [3]: −16.05%
Avg (mTOR S2481) [3]: −22.53%
Avg (mTOR) [3]: −12.56%
Avg (p70 S6 Kinase) [3]: −14.12%
Avg (p90 RSK S380) [3]: −33.7%
Avg(S6 Ribo Prot S235 236) [3]: −93.86%
Avg(S6 Ribo Prot S240 244) [3]: −91.07%
Avg(Tuberin TSC2 Y1571) [3]: −16.17%
Avg(p70 S6 Kinase S371 S394) [3]: −12.3%
Avg(p70 S6 Kinase T389 T412) [3]: −24.63%
Avg (4ebp1 T70) [4]: −31.75%
Avg (Akt S473) [4]: 58.13%
Avg (Akt) [4]: −23.26%
Avg (Bad S136) [4]: 5.32%
Avg (Bad S155) [4]: −13.86%
Avg (Bak) [4]: −2.37%
Avg (Bax) [4]: −17.32%
Avg (Bcl 2) [4]: −18.53%
Avg (Bcl2 S70) [4]: −12.91%
Avg (Bcl 2 T56) [4]: −19.55%
Avg (Bim) [4]: 17.52%
Avg (CREB S133) [4]: −1.55%
Avg (Caspase 3 CL D175) [4]: −9.87%
Avg (Caspase 7 Cl D198) [4]: −6%
Avg (Chk1) [4]: 2.83%
Avg (Chk1 S345) [4]: −10.59%
Avg (Cyclin D1) [4]: −84.05%
Avg (ERK 1 2) [4]: −21.65%
Avg (ERK 1 2 T202 Y204) [4]: −90.63%
Avg (MAK1 S360) [4]: 0.97%
Avg (Mcl1) [4]: 2.11%
Avg (Raptor S792) [4]: −6.89%
Avg (Raptor) [4]: −11.66%
Avg (Rictor) [4]: −22.13%
Avg (Stat1) [4]: −6.01%
Avg (Stat3) [4]: −1.42%
Avg (bad S112) [4]: −71.44%
Avg (c Fos) [4]: −12.51%
Avg (c Myc) [4]: 1.86%
Avg (mTOR S2448) [4]: −26.17%
Avg (mTOR S2481) [4]: −15.82%
Avg (mTOR) [4]: −5.18%
Avg (p70 S6 Kinase) [4]: −17.66%
Avg (p90 RSK S380) [4]: −72.44%
Avg(S6 Ribo Prot S235 236) [4]: −94.71%
Avg(S6 Ribo Prot S240 244) [4]: −91.78%
Avg(Tuberin TSC2 Y1571) [4]: −13.7%
Avg(p70 S6 Kinase S371 S394) [4]: −28.72%
Avg(p70 S6 Kinase T389 T412) [4]: −42.73%
